Results published in patent US9556228B2 (Universitaet Leipzig, priority 2011, dated 2017).
Converted amounts (≈) assume the structure as drawn. Peptide text beside a SMILES is read from it. * marks the point of attachment. Orn(α-tetramethylguanidino) = CN(C)C(=N[C@@H](CCCN)C(=O)*)N(C)C

Assays:
[1] = system: Pseudomonas aeruginosa PAO1 (wt strain); assay type: cell-based; conditions: for Improvement over Native Sequence (SEQ No. 2) P. aeruginosa PAO1 wt: fold, from MIC in 1/8 MHB
Protocol: (§1) The minimum inhibitory concentrations (MIC) of the peptides were determined in a double assay of triplicates using a positive control sample (gentamycin) and a negative control sample (0.9% NaCl solution), according to a modified protocol from Wiegand et al. (Wiegand, 2008).
(§2) For this purpose, the peptides were dissolved in water and were diluted in a double dilution series with 1/8 MH (eight-fold diluted Mueller-Hinton-Medium—2.6 g/L, Merck) in sterile 96-well, plates (Greiner Bio-One GmbH) in twelve dilution steps from 128 μg/mL to 62.5 ng/mL. Overnight cultures were adjusted using ⅛ MHB to approximately 1.5×10^7 colony forming units per mL. Of these, 50 μL of peptide solution per well was mixed with 50 μL bacteria solution each to obtain an initial concentration of […] bacteria per well. After 20 hours of incubation at 37′C, the absorption was determined at 595 nm (microplate reader, Wallac Victor3, Perkin Elmer). The minimum inhibitory concentration was identified as the lowest peptide concentration at which no bacterial growth could be detected.
(§3) In the experiment, the antibacterial activity of the peptides according to the invention in relation to the following bacterial strains was analyzed: Pseudomonas aeruginosa PAO1 (wt strain), Pseudomonas aeruginosa DSM 9644, Staphylococcus aureus DSM 1104/ATCC 25923, Staphylococcus aureus ATCC 6247, Escherichia coli UB 1005 (F—, nalA37, metB1) and Escherichia coli ATCC25922.

[2] = system: Staphylococcus aureus DSM 1104/ATCC 25923; assay type: cell-based; conditions: for MIC S. aureus ATCC 25923 / MIC S. aureus DSM 1104/ATCC 25923: DSM 1104; for Improvement over Native Sequence (SEQ No. 2) S. aureus ATCC 25923: fold, from MIC in 1/8 MHB
Protocol: as §1, §2, §3

[3] = system: Escherichia coli UB 1005; experiment: Minimum inhibitory concentration (MIC), broth microdilution; assay type: cell-based; conditions: for MIC E. coli UB1005: 1/8 MHB, Table 4; for Improvement over Native Sequence (SEQ No. 2) E. coli UB1005: fold, from MIC in 1/8 MHB
Protocol: as §1, §2, §3

[4] = system: S. aureus DSM 6247; assay type: cell-based, Staphylococcus aureus
Protocol: as §1, §2, §3

[5] = system: Escherichia coli ATCC25922; assay type: cell-based
[6] = system: Pseudomonas aeruginosa DSM 9644; assay type: cell-based
Protocol: as §1
as §2, with “For this purpose, the peptides were dissolved in water and were diluted in a double dilution series with 1/8 MH (eight-fold diluted Mueller-Hinton-Medium—2.6 g/L, Merck) in sterile 96-well, plates (Greiner Bio-One GmbH) in twelve dilution steps from 128 μg/mL to 62.5 ng/mL.” left out
as §3

[7] = system: E. coli DSM 1103; assay type: cell-based, Escherichia coli
Protocol: as §1, §2

| SMILES | MIC P. aeruginosa PAO1 wt [1] [µg/mL] | Improvement over Native Sequence (SEQ No. 2) P. aeruginosa PAO1 wt [1] | MIC S. aureus ATCC 25923 [2] [µg/mL] | MIC S. aureus DSM 1104/ATCC 25923 [2] [µg/mL] | Improvement over Native Sequence (SEQ No. 2) S. aureus ATCC 25923 [2] | MIC E. coli UB1005 [3] [µg/mL] | Improvement over Native Sequence (SEQ No. 2) E. coli UB1005 [3] | MIC S. aureus DSM 6247 [4] [µg/mL] | MIC E. coli ATCC 25922 [5] [µg/mL] | MIC P. aeruginosa PAO DSM 9644 [6] [µg/mL] | MIC E. coli DSM 1103 [7] [µg/mL] |
| --- | --- | --- | --- | --- | --- | --- | --- | --- | --- | --- | --- |
| CC[C@H](C)[C@H](NC(=O)[C@H](Cc1ccc(O)cc1)NC(=O)[C@@H](NC(=O)[C@@H]1CCCN1C(=O)[C@H](CCCNC(=N)N)NC(=O)[C@H](CC(N)=O)NC(=O)[C@H](CC(N)=O)NC(=O)CN)C(C)C)C(=O)N1CCC[C@H]1C(=O)N[C@@H](CCC(N)=O)C(=O)N1CCC[C@H]1C(=O)N[C@@H](CCCNC(=N)N)C(=O)N1CCC[C@H]1C(=O)N1CCC[C@H]1C(=O)N[C@@H](Cc1c[nH]cn1)C(=O)N1CCC[C@H]1C(=O)N[C@@H](CCCNC(=N)N)C(=O)N[C@@H](CC(C)C)C(=O)O [compound 2] (H-GNNRPVYIPQPRPPHPRL-OH; N-terminus assumed) | 500 (≈ 237 µM) | 1 | >125 | >125 | 1 | 5 (≈ 2.37 µM) | 1 | 256 (≈ 121 µM) | 2 (≈ 0.949 µM) | >256 | – |
| CC[C@H](C)[C@H](NC(=O)[C@H](Cc1ccc(O)cc1)NC(=O)[C@@H](NC(=O)[C@@H]1CCCN1C(=O)[C@H](CCCNC(=N)N)NC(=O)[C@H](CC(N)=O)NC(=O)[C@H](Cc1c[nH]c2ccccc12)NC(=O)CN)C(C)C)C(=O)N1CCC[C@H]1C(=O)N[C@@H](CCCNC(=N)N)C(=O)N1CCC[C@H]1C(=O)N[C@@H](CCCNC(=N)N)C(=O)N[C@@H](CCCNC(=N)N)C(=O)N1CCC[C@H]1C(=O)N[C@@H](Cc1c[nH]cn1)C(=O)N1CCC[C@H]1C(=O)N[C@@H](CCCNC(=N)N)C(=O)N[C@@H](CC(C)C)C(N)=O [compound 50] (H-GWNRPVYIPRPRRPHPRL-NH2; N-terminus assumed) | 32 (≈ 14.1 µM) | 16 | 2 (≈ 0.882 µM) | 2 (≈ 0.882 µM) | 128 | 2.5 (≈ 1.1 µM) | 2 | 2 (≈ 0.882 µM) | 8 (≈ 3.53 µM) | 32 (≈ 14.1 µM) | – |
| CC[C@H](C)[C@H](NC(=O)[C@H](Cc1ccc(O)cc1)NC(=O)[C@@H](NC(=O)[C@@H]1CCCN1C(=O)[C@H](CCCNC(=N)N)NC(=O)[C@H](CC(N)=O)NC(=O)[C@H](Cc1c[nH]c2ccccc12)NC(=O)CN)C(C)C)C(=O)N1CCC[C@H]1C(=O)N[C@@H](CCC(N)=O)C(=O)N1CCC[C@H]1C(=O)N[C@@H](CCCNC(=N)N)C(=O)N[C@@H](CCCNC(=N)N)C(=O)N1CCC[C@H]1C(=O)N[C@@H](Cc1c[nH]cn1)C(=O)N1CCC[C@H]1C(=O)N[C@@H](CCCNC(=N)N)C(=O)N[C@@H](CC(C)C)C(N)=O [compound 52] (H-GWNRPVYIPQPRRPHPRL-NH2; N-terminus assumed) | 64 (≈ 28.6 µM) | 8 | 4 to 8 | 4 to 8 | 31-64 | 5 (≈ 2.23 µM) | 1 | 2 (≈ 0.893 µM) | 16 (≈ 7.15 µM) | 64 (≈ 28.6 µM) | – |
| CC[C@H](C)[C@H](NC(=O)[C@H](Cc1ccc(O)cc1)NC(=O)[C@@H](NC(=O)[C@@H]1CCCN1C(=O)[C@H](CCCNC(=N)N)NC(=O)[C@H](CC(N)=O)NC(=O)[C@H](CC(N)=O)NC(=O)CN)C(C)C)C(=O)N1CCC[C@H]1C(=O)N[C@@H](CCCNC(=N)N)C(=O)N1CCC[C@H]1C(=O)N[C@@H](CCCNC(=N)N)C(=O)N[C@@H](CCCNC(=N)N)C(=O)N1CCC[C@H]1C(=O)N[C@@H](Cc1c[nH]cn1)C(=O)N1CCC[C@H]1C(=O)N[C@@H](CCCNC(=N)N)C(=O)N[C@@H](CC(C)C)C(N)=O [compound 64] (H-GNNRPVYIPRPRRPHPRL-NH2; N-terminus assumed) | 64 (≈ 29.2 µM) | 8 | 4 (≈ 1.82 µM) | 4 (≈ 1.82 µM) | 64 | 2.5 (≈ 1.14 µM) | 2 | 2 (≈ 0.911 µM) | 8 (≈ 3.65 µM) | 32 (≈ 14.6 µM) | – |
| CC[C@H](C)[C@H](NC(=O)[C@H](Cc1ccc(O)cc1)NC(=O)[C@@H](NC(=O)[C@@H]1CCCN1C(=O)[C@H](CCCNC(=N)N)NC(=O)[C@H](CC(N)=O)NC(=O)[C@H](CC(N)=O)NC(=O)[C@H](CCCN)N=C(N(C)C)N(C)C)C(C)C)C(=O)N1CCC[C@H]1C(=O)N[C@@H](CCCNC(=N)N)C(=O)N1CCC[C@H]1C(=O)N[C@@H](CCCNC(=N)N)C(=O)N1CCC[C@H]1C(=O)N1CCC[C@H]1C(=O)N[C@@H](Cc1c[nH]cn1)C(=O)N1CCC[C@H]1C(=O)N[C@@H](CCCNC(=N)N)C(=O)N[C@@H](CCCNC(=N)N)C(=O)O [compound 84] ({Orn(α-tetramethylguanidino)}-NNRPVYIPRPRPPHPRR-OH) | – | – | – | – | – | – | – | 8 (≈ 3.43 µM) | – | 64 (≈ 27.4 µM) | 4 (≈ 1.71 µM) |
| CC[C@H](C)[C@H](NC(=O)[C@H](Cc1ccc(O)cc1)NC(=O)[C@@H](NC(=O)[C@@H]1CCCN1C(=O)[C@H](CCCNC(=N)N)NC(=O)[C@H](CC(N)=O)NC(=O)[C@H](CC(N)=O)NC(=O)[C@H](CCCN)N=C(N(C)C)N(C)C)C(C)C)C(=O)N1CCC[C@H]1C(=O)N[C@@H](CCCNC(=N)N)C(=O)N1CCC[C@H]1C(=O)N[C@@H](CCCNC(=N)N)C(=O)N[C@@H](CCCNC(=N)N)C(=O)N1CCC[C@H]1C(=O)N[C@@H](Cc1c[nH]cn1)C(=O)N1CCC[C@H]1C(=O)N[C@@H](CCCNC(=N)N)C(=O)N[C@@H](CC(C)C)C(=O)O [compound 86] ({Orn(α-tetramethylguanidino)}-NNRPVYIPRPRRPHPRL-OH) | – | – | – | – | – | – | – | 32 (≈ 13.6 µM) | – | 32 (≈ 13.6 µM) | 8 (≈ 3.4 µM) |
| CC[C@H](C)[C@H](NC(=O)[C@H](Cc1ccc(O)cc1)NC(=O)[C@@H](NC(=O)[C@@H]1CCCN1C(=O)[C@H](CCCNC(=N)N)NC(=O)[C@H](CC(N)=O)NC(=O)[C@H](CC(N)=O)NC(=O)[C@H](CCCN)N=C(N(C)C)N(C)C)C(C)C)C(=O)N1CCC[C@H]1C(=O)N[C@@H](CCCNC(=N)N)C(=O)N1CCC[C@H]1C(=O)N[C@@H](CCCNC(=N)N)C(=O)N[C@@H](CCCNC(=N)N)C(=O)N1CCC[C@H]1C(=O)N[C@@H](Cc1c[nH]cn1)C(=O)N1CCC[C@H]1C(=O)N[C@@H](CCCNC(=N)N)C(=O)N[C@@H](CC(C)C)C(N)=O [compound 88] ({Orn(α-tetramethylguanidino)}-NNRPVYIPRPRRPHPRL-NH2) | – | – | – | – | – | – | – | 16 (≈ 6.81 µM) | – | 16 (≈ 6.81 µM) | 8 (≈ 3.4 µM) |
| CC[C@H](C)[C@H](NC(=O)[C@H](Cc1ccc(O)cc1)NC(=O)[C@@H](NC(=O)[C@@H]1CCCN1C(=O)[C@H](CCCNC(=N)N)NC(=O)[C@H](CC(N)=O)NC(=O)[C@H](CC(N)=O)NC(=O)CN)C(C)C)C(=O)N1CCC[C@H]1C(=O)N[C@@H](CCC(N)=O)C(=O)N1CCC[C@H]1C(=O)N[C@@H](CCCNC(=N)N)C(=O)N1CCC[C@H]1C(=O)N1CCC[C@H]1C(=O)N[C@@H](Cc1c[nH]cn1)C(=O)N1CCC[C@H]1C(=O)N[C@@H](CCCNC(=N)N)C(=O)N[C@@H](CC(C)C)C(N)=O [compound 90] (H-GNNRPVYIPQPRPPHPRL-NH2; N-terminus assumed) | 250 (≈ 119 µM) | 2 | >125 | >125 | – | 1.25 (≈ 0.593 µM) | 4 | 64 (≈ 30.4 µM) | 2 (≈ 0.949 µM) | – | – |
| CC[C@H](C)[C@H](NC(=O)[C@H](Cc1ccc(O)cc1)NC(=O)[C@@H](NC(=O)[C@@H]1CCCN1C(=O)[C@H](CC(=O)O)NC(=O)[C@H](CC(N)=O)NC(=O)[C@H](CC(N)=O)NC(=O)CN)C(C)C)C(=O)N1CCC[C@H]1C(=O)N[C@@H](CCC(N)=O)C(=O)N1CCC[C@H]1C(=O)N[C@@H](CCCNC(=N)N)C(=O)N1CCC[C@H]1C(=O)N1CCC[C@H]1C(=O)N[C@@H](Cc1c[nH]cn1)C(=O)N1CCC[C@H]1C(=O)N[C@@H](CCCNC(=N)N)C(=O)N[C@@H](CC(C)C)C(N)=O [compound 91] (H-GNNDPVYIPQPRPPHPRL-NH2; N-terminus assumed) | 121.0 (≈ 58.6 µM) | 4 | >60.5 | – | – | >19.4 | <0.25 | – | – | – | – |
